Active and inactive are the calls of the source. The calls are words filed in the database; no cut-off is given here.
What was measured:
Mus musculus [1] = test: Antidiabetic activity in C57BLKS/J-m+/+Leprdb db/db mouse assessed as reduction in plasma glucose levels at 3 mg/kg, po once daily for 11 days relative to control; assay type: functional; set-up: scale not given: the % may be the effect or the level left
[2] = AUC in C57BLKS/J-m+/+Leprdb db/db mouse at 1 mg/kg, po once daily for 11 days; assay type: ADME, organism-based; set-up: dose 1 mg/kg, route oral; settings: plasma
[3] = AUC in high fat diet-fed streptozotocin-treated mouse at 30 mg/kg, po once daily for 12 days; assay type: ADME, organism-based; set-up: dose 30 mg/kg, route oral; settings: plasma
Rattus norvegicus [4] = test: Antidiabetic activity in Zucker fa/fa rat assessed as decrease in free fatty acid levels at 3 mg/kg, po once daily for 7 days; assay type: functional, organism-based; set-up: dose 3 mg/kg
Rattus norvegicus [5] = test: Antidiabetic activity in Zucker fa/fa rat assessed as decrease in free fatty acid levels at 100 mg/kg, po once daily for 7 days; assay type: functional, organism-based; set-up: dose 100 mg/kg
Rattus norvegicus [6] = test: Antidiabetic activity in Zucker fa/fa rat assessed as decrease in triglyceride levels at 0.3 mg/kg, po once daily for 7 days; assay type: functional, organism-based; set-up: dose 0.3 mg/kg
Rattus norvegicus [7] = test: Antidiabetic activity in Zucker fa/fa rat assessed as decrease in triglyceride levels at 10 mg/kg, po once daily for 7 days; assay type: functional, organism-based; set-up: dose 10 mg/kg
Rattus norvegicus [8] = test: Antidiabetic activity in Zucker fa/fa rat assessed as decrease in triglyceride levels at 100 mg/kg, po once daily for 7 days; assay type: functional, organism-based; set-up: dose 100 mg/kg
Rattus norvegicus [9] = test: Toxicity in Zucker fa/fa rat assessed as increase in heart weight at 15 mg/kg, po treated once daily for 7 days; assay type: organism-based; set-up: dose 15 mg/kg, route oral; settings: in vivo, 168 h
Syrian golden hamster [10] = test: Antidiabetic activity in Syrian golden hamster assessed as reduction in cholesterol level at 1 mg/kg, po once daily for 9 days relative to control; assay type: functional, Mesocricetus auratus; set-up: scale not given: the % may be the effect or the level left
Syrian golden hamster [11] = test: Antidiabetic activity in Syrian golden hamster assessed as reduction in triglyceride level at 0.3 mg/kg, po once daily for 9 days relative to control; assay type: functional, Mesocricetus auratus; set-up: scale not given: the % may be the effect or the level left
Syrian golden hamster [12] = test: Antidiabetic activity in Syrian golden hamster assessed as reduction in triglyceride level at 1 mg/kg, po once daily for 9 days relative to control; assay type: functional, Mesocricetus auratus; set-up: scale not given: the % may be the effect or the level left
[13] = AUC in Syrian golden hamster at 1 mg/kg, po once daily for 9 days; assay type: ADME, organism-based, Mesocricetus auratus; set-up: dose 1 mg/kg, route oral; settings: plasma
[14] = AUC in Syrian golden hamster at 3 mg/kg, po once daily for 9 days; assay type: ADME, organism-based, Mesocricetus auratus; set-up: dose 3 mg/kg, route oral; settings: plasma
Canis familiaris = test: Antidiabetic activity in Beagle dog assessed as reduction in total cholesterol level at 1 mg/kg, po once daily for 14 days relative to control; assay type: functional, Canis lupus familiaris; set-up: scale not given: the % may be the effect or the level left
[15] = AUC in Beagle dog at 3 mg/kg, po once daily for 14 days; assay type: ADME, organism-based, Canis lupus familiaris; set-up: dose 3 mg/kg, route oral; settings: plasma
[16] = AUC in Sprague-Dawley rat at 60 mg/kg, po once daily for 14 days; assay type: ADME, organism-based; set-up: dose 60 mg/kg, route oral; settings: plasma
Rattus norvegicus [17] = test: Toxicity in Sprague-Dawley rat assessed as increase in heart weight at 60 mg/kg, po once daily for 14 days; assay type: organism-based; set-up: dose 60 mg/kg, route oral; settings: in vivo, 336 h
Rattus norvegicus [18] = test: Toxicity in Sprague-Dawley rat assessed as increase bilirubin levels at 60 mg/kg, po once daily for 14 days; assay type: organism-based; set-up: dose 60 mg/kg, route oral; settings: in vivo, 336 h
[19] = target: T1, Peroxisome proliferator-activated receptor alpha (Homo sapiens, UniProt Q07869); test: Inhibition of human PPARalpha receptor by scintillation proximity assay
T1 sequence (Q07869 whole entry): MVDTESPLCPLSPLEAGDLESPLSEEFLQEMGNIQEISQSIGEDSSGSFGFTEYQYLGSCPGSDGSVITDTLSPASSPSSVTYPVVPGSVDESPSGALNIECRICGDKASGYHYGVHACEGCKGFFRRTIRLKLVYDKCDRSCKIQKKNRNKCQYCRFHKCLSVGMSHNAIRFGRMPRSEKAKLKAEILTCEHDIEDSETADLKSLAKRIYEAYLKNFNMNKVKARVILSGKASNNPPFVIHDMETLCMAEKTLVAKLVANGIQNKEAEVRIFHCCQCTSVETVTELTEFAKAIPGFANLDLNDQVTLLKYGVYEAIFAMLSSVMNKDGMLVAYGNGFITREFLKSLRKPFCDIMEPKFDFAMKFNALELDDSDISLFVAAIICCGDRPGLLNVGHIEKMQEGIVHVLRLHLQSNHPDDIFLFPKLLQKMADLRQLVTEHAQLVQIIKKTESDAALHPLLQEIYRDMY

Mus musculus [20] = test: Antidiabetic activity in C57BLKS/J-m+/+Leprdb db/db mouse assessed as reduction in plasma triglyceride levels at 10 mg/kg, po once daily for 11 days relative to control; assay type: functional; set-up: scale not given: the % may be the effect or the level left
[21] = Agonist activity at hamster PPARalpha receptor; assay type: functional, Cricetinae
[22] = target: Peroxisome proliferator-activated receptor alpha (Canis lupus familiaris, UniProt Q95N78); test: Agonist activity at dog PPARalpha receptor; assay type: functional
Peroxisome proliferator-activated receptor alpha (Canis lupus familiaris, UniProt Q95N78), sequence (Q95N78 whole entry): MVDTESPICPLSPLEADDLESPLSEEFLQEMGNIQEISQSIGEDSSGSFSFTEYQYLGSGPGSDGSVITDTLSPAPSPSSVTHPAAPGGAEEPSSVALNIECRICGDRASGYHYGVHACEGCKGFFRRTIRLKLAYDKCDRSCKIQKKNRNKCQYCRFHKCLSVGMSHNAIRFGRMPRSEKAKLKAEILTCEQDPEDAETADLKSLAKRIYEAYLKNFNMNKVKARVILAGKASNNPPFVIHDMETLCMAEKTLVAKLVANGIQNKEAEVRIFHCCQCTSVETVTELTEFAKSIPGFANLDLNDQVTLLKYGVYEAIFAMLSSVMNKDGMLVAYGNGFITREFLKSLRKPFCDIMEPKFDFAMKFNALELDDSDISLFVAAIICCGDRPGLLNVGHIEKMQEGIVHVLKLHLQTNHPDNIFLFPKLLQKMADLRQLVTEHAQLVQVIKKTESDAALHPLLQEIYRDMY

Cytochrome P450 2C19 = Cytochrome P450 2C19 (Homo sapiens, UniProt P33261); test: Inhibition of CYP2C19; assay type: ADME
Cytochrome P450 2C19, sequence (P33261 whole entry): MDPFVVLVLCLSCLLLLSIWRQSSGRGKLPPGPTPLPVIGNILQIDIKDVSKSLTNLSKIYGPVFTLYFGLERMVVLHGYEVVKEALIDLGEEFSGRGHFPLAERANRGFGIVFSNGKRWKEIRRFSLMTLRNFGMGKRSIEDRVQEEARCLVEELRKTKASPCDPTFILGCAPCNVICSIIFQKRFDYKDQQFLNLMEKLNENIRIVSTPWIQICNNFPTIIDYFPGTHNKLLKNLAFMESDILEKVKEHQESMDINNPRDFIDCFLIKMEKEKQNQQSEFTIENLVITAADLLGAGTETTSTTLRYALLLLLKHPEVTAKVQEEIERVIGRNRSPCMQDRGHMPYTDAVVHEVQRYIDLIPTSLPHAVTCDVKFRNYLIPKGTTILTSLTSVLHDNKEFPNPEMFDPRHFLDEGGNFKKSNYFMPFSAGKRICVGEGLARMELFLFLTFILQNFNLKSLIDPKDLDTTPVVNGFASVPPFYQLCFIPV

Cytochrome P450 1A2 = Cytochrome P450 1A2 (Homo sapiens, UniProt P05177); test: Inhibition of CYP1A2; assay type: ADME
Cytochrome P450 1A2, sequence (P05177 whole entry): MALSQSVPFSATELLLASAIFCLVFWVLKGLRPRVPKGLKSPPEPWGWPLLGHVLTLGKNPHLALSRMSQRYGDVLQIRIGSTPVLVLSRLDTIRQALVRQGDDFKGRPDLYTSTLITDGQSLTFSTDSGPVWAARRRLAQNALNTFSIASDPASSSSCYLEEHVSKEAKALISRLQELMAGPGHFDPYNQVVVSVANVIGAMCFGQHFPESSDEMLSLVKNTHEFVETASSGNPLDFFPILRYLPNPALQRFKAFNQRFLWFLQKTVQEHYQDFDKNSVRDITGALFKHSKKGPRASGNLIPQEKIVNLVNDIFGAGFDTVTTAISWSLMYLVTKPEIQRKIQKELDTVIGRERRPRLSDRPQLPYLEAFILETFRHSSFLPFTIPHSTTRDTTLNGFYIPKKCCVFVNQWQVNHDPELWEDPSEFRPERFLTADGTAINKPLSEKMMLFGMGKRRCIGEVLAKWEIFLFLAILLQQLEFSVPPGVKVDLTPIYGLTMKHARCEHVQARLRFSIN

Cytochrome P450 2D6 = Cytochrome P450 2D6 (Homo sapiens, UniProt P10635); test: Inhibition of CYP2D6; assay type: ADME
Cytochrome P450 2D6, sequence (P10635 whole entry): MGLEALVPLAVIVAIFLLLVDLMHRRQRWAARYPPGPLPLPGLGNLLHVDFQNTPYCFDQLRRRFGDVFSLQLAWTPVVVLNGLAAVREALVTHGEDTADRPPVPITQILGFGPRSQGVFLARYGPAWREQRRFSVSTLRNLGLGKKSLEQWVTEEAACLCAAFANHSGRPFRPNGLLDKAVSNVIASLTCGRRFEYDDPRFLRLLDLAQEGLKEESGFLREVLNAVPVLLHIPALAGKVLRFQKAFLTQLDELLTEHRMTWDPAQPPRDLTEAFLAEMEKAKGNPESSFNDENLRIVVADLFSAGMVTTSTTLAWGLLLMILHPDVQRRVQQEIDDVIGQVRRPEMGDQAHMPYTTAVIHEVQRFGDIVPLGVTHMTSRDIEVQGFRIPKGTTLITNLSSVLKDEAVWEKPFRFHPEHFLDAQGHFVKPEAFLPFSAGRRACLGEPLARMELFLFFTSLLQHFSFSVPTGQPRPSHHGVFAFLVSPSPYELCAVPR

[23] = target: Retinoic acid receptor RXR-alpha (Homo sapiens) (UniProt P19793); test: Binding affinity to RXRalpha up to 10 uM
Retinoic acid receptor RXR-alpha (Homo sapiens), sequence (P19793 whole entry): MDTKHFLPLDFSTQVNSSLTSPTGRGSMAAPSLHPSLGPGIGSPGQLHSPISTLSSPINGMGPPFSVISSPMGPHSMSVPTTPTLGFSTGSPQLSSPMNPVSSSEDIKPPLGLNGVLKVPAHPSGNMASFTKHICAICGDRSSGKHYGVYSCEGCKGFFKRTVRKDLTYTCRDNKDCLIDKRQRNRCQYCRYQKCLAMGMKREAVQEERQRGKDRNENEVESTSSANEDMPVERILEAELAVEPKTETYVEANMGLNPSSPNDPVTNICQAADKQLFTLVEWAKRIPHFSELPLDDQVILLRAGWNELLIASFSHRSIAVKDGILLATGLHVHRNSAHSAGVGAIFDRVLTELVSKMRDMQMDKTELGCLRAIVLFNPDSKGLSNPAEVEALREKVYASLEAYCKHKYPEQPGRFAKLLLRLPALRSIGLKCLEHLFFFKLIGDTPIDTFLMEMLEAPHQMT

[24] = target: Nuclear receptor subfamily 1 group I member 2 (Homo sapiens, UniProt O75469); test: Binding affinity to PXR up to 10 uM
Nuclear receptor subfamily 1 group I member 2, sequence (O75469 whole entry): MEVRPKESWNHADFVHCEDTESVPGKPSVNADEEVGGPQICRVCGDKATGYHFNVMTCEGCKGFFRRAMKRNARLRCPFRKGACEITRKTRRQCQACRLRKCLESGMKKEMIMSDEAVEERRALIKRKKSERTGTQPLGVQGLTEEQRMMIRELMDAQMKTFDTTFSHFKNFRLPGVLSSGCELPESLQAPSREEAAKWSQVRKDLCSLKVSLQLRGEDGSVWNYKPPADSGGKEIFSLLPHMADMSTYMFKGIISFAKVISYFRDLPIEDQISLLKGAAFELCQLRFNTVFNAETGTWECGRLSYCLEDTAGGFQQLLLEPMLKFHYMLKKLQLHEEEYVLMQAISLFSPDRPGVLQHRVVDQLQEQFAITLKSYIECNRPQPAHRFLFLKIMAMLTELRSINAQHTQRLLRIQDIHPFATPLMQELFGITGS

[25] = target: Estrogen receptor beta (Homo sapiens) (UniProt Q92731); test: Binding affinity to ERbeta up to 10 uM
Estrogen receptor beta (Homo sapiens), sequence (Q92731 whole entry): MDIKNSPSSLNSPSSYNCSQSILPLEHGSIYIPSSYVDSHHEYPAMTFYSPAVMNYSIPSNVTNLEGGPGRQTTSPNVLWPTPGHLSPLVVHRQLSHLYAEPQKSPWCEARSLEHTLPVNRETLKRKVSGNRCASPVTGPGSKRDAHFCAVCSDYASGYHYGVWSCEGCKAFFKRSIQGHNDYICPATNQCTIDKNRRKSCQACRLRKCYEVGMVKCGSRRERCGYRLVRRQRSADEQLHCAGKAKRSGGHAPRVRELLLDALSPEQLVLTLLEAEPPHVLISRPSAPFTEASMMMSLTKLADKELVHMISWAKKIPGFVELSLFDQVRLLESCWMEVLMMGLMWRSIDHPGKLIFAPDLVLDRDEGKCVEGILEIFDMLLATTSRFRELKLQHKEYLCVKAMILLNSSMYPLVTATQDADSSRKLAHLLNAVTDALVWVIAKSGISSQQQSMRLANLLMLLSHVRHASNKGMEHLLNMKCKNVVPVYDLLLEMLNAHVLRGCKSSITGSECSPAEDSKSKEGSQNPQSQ

[26] = target: Thyroid hormone receptor beta (Homo sapiens) (UniProt P10828); test: Binding affinity to TRbeta up to 10 uM
Thyroid hormone receptor beta (Homo sapiens), sequence (P10828 whole entry): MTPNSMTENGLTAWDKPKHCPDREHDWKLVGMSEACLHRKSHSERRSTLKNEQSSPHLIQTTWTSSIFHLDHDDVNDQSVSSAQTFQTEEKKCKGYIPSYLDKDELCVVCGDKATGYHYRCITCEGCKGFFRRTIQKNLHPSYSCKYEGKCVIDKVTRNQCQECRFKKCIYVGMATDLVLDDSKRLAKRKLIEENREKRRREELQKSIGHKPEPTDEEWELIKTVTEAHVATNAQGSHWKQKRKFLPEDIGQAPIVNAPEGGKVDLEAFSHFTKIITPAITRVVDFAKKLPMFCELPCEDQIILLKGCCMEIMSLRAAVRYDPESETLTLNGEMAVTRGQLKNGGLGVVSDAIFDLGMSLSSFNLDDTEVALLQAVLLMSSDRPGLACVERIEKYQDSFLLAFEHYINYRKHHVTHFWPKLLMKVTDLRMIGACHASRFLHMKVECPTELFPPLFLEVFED

[27] = target: Retinoic acid receptor RXR-alpha (Homo sapiens) (UniProt P19793); test: Activity at RXRalpha receptor up to 10 uM by transactivation assay
Mus musculus [28] = test: Antidiabetic activity in C57BLKS/J-m+/+Leprdb db/db mouse assessed as reduction in plasma glucose levels at 1 mg/kg, po once daily for 11 days relative to control; assay type: functional; set-up: scale not given: the % may be the effect or the level left
[29] = target: T2, Peroxisome proliferator-activated receptor gamma (Homo sapiens, UniProt P37231)
T2 sequence (P37231 whole entry): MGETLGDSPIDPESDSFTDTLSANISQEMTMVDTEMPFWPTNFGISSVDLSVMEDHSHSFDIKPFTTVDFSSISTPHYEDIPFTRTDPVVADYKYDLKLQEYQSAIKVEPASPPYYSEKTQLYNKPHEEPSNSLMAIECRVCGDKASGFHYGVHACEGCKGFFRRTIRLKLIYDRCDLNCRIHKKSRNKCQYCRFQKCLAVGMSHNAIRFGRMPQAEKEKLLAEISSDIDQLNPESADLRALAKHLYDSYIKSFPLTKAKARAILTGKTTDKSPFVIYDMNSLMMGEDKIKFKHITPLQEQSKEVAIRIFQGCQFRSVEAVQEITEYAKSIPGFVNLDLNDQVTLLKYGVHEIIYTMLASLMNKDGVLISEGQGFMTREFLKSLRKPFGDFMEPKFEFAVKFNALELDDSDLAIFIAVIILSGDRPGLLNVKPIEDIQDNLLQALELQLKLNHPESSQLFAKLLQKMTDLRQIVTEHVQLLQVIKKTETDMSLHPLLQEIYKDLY
Description: Inhibition of human PPARgamma receptor by scintillation proximity assay

[30] = target: T2, Peroxisome proliferator-activated receptor gamma; remark: listed apart in the source
Description: Agonist activity at human PPARgamma receptor expressed in african green monkey COS1 cells co-transfected with fused yeast Gal4-DBD by transactivation assay

CC[C@@H](Oc1cccc(Cn2c(C)c(C(=O)c3ccc(Cl)cc3)c3ccc(OC(F)(F)F)cc32)c1)C(=O)O
Activity (Mus musculus [1]): 98%
AUC at 264 h [2]: 1.9 µM·h
AUC at 288 h [3]: 8.2 µM·h
Activity (Rattus norvegicus [4]): Active
Activity (Rattus norvegicus [5]): Active
Activity (Rattus norvegicus [6]): Active
Activity (Rattus norvegicus [7]): Active
Activity (Rattus norvegicus [8]): Active
Activity (Rattus norvegicus [9]): Non-toxic
Activity (Syrian golden hamster [10]): 33.9%
Activity (Syrian golden hamster [11]): 10.1%
Activity (Syrian golden hamster [12]): 30.7%
AUC at 216 h [13]: 0.55 µM·h
AUC at 216 h [14]: 2.11 µM·h
Activity (Canis familiaris): 12.8%
AUC at 336 h [15]: 21.4 µM·h
AUC at 336 h [16]: 40 µM·h
Activity (Rattus norvegicus [17]): 1%
Activity (Rattus norvegicus [18]): 48%
IC50 [19]: 2.62 µM
Activity (Mus musculus [20]): 84%
EC50 [21]: 0.00046 µM
EC50 [22]: 0.00055 µM
IC50 (Cytochrome P450 2C19): 91 µM
IC50 (Cytochrome P450 1A2): 40 µM
IC50 (Cytochrome P450 2D6): 7 µM
Activity [23]: inactive
Activity [24]: Not Active
Activity [25]: inactive
Activity [26]: inactive
Activity [27]: inactive
Activity (Mus musculus [28]): 78%
IC50 [29]: 0.009 µM
EC50 [30]: 0.002 µM
